Source: US4755526A, “Method of inhibiting aromatase” (Eli Lilly and Company, priority 1984, dated 1988)
Counter-ions that a name gives are not always drawn.

Experiments:
[1] = tested on: estrogen synthesis; experiment: Estrogen synthesis inhibition in rats (uterine weight and ovarian steroid concentrations); type: in vivo, female Wistar rats; conditions: for Mean Steroid Concentration, estradiol / Mean Steroid Concentration, estriol / Mean Steroid Concentration, estrone: ovaries; for Mean Uterine Weight: testosterone propionate-treated rats
Method: Test compounds were administered for seven days either daily by gavage in corn oil or as a component of the diet. Control animals received either corn oil or diet without the test compound. Beginning on the fourth day of the test, all animals treated with the test compound and one half of the control animals were given a subcutaneous injection of 1.0 mg of testosterone propionate in corn oil. The remaining control animals received only an equivalent volume of corn oil.
After two hours, the animals were killed by decapitation. Uteri were isolated, trimmed of extraneous connective tissue, and weighed. […] In the control animals treated with testosterone propionate, estrogens produced by aromatization stimulated the uterus resulting in an increase in weight.
The ovarian steroids were extracted with 1.5 ml of 9:1 (v/v) toluene/ethanol to which had been added 25 to 100 mcg each of unlabelled estradiol, estriol, and estrone, and approximately 1000 dpm of [^14 C]-estradiol. The samples were vortexed, centrifuged at 500×g for 10 minutes, and the organic phase was transferred to a conical vial. Two additional extractions were performed on the residue in the same way. The pooled organic extracts were evaporated for subsequent thin-layer chromatography.
Ovarian proteins were precipitated by the addition of 5.0 ml of ethanol to the remaining aqueous phase. After an overnight incubation at 4° C., the samples were centrifuged at 1500×g for 10 minutes. The supernatant was discarded, and the pellet was dissolved in 0.3N potassium hydroxide.
The organic residue from each above extraction was redissolved in 9:1 (v/v) dichloromethane/methanol. The solution of each sample was applied to separate silica gel thin layer chromatography plates which contained a fluorescent indicator. The plates were developed in the first dimension with 160:38:1.5:0.5 (v/v/v/v) dichloromethane/ethyl acetate/methanol/acetic acid to within 3 cm of the top of the plate. After air-drying, the plate was developed in the second dimension with 180:19:1 (v/v/v) dichloromethane/methanol/ammonium hydroxide. The plate was air-dried and viewed under 254 nm UV light.
The visible spots were marked and the plates were sprayed with primulin (0.001% in 4:1 v/v acetone/water) according to the method of Wright, J. Chromatography, 59, 220 (1971) which allowed for the identification of additional steroids under 365 nm UV light. The spots were scraped from the plate using a glass wool plugged Pasteur pipet attached to a vacuum line. The steroids were eluted directly into scintillation vials by the addition of 0.2 ml of dichloromethane followed by two washes each of 2.0 ml of methanol. The organic solvent was evaporated and 10.0 ml of scintillation fluid (Beckman Ready Solv-NA) was added to the vials. Samples were analyzed by liquid scintillation spectrometry. Corrections were made based on the recoveries of the [^14 C]-steroid. Steroid concentrations are expressed as femtomoles per milligram protein.

[2] = tested on: DMBA-induced mammary tumors; experiment: DMBA-induced mammary tumor inhibition; type: in vivo, female Sprague-Dawley rats
Method: Mammary tumors were produced in female Sprague-Dawley rats which were 50-60 days old by the gavage administration of 20 mg of 7,12-dimethylbenz[a]anthracene (DMBA). About six weeks after DMBA administration, the mammary glands were palpated at weekly intervals for the appearance of tumors. Whenever one or more tumors appeared and were measurable in an animal, that animal was selected for experimentation. […] Each control and test group contained 8 animals. The test compound was administered either mixed into the food at a concentration of 300 ppm (corresponding to an appropriate daily dose of 30 mg/kg) or the compounds were dissolved or suspended in corn oil and administered once daily by gavage. Every experiment included a group of control rats having tumors and were either given food without the compound admixed or corn oil vehicle by gavage, depending on how the test compound was administered. […] The area of each tumor was calculated by multiplying the shortest and longest diameters of the tumor. The treatment and measurement of animals continued for 4-8 weeks at which time the final areas of the tumors were determined. For each compound (and control) at each dose level, the change in the mean tumor area was determined. The mean change was analyzed for its significance using Dunnett's t-test.

[3] = target: T1, aromatase (Rattus norvegicus, UniProt P22443); experiment: Aromatase inhibition in the rat ovarian microsome assay; type: biochemical; conditions: EC50: concentration required to achieve 50% inhibition of aromatase activity, substrate (androstenedione) concentration 0.1 μM
T1 construct: ovarian microsomes are obtained from rats treated with pregnant mares serum gonadotropin; from tissue; host or cells: ovarian microsomes of rats treated with pregnant mares serum gonadotropin
T1 sequence (P22443 1-508): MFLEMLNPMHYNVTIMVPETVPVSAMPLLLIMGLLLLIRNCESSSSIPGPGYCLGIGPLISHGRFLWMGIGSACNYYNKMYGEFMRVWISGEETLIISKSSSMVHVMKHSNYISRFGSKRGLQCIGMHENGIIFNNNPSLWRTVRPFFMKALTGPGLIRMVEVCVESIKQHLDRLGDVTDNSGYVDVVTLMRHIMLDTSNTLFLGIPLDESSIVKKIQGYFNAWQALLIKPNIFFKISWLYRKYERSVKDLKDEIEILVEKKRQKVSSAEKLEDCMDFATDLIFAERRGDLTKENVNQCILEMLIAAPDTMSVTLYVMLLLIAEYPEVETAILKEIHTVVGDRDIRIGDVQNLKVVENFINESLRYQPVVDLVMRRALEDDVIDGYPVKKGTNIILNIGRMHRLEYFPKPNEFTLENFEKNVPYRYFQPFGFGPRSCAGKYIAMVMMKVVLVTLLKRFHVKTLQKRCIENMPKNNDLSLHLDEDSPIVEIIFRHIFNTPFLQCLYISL
Method: In this test system, ovarian microsomes are obtained from rats treated with pregnant mares serum gonadotropin. Test compounds are added to reaction vials containing 0.1 μM 4-androstene-3,17-dione, 100,000 dpm 1,2[^3 H]-androstenedione, the microsomes and a NADPH generating system. The concentrations of the inhibitors tested ranged between 0.005 and 10 μM.

[4] = 30 ppm in feed (approximately 3 mg/kg/day)
[5] = 300 ppm in feed (approximately 30 mg/kg/day)
[6] = 200 ppm in feed (approximately 20 mg/kg/day)

| Structure (SMILES) | Mean Steroid Concentration, estradiol [1, 4] | Mean Steroid Concentration, estriol [1, 4] | Mean Steroid Concentration, estrone [1, 4] | Mean Uterine Weight [1, 4] [mg] | Mean Steroid Concentration, estradiol [1, 5] | Mean Steroid Concentration, estriol [1, 5] | Mean Steroid Concentration, estrone [1, 5] | Mean Uterine Weight [1, 5] [mg] | EC50 [3] [nM] | Mean Steroid Concentration, estradiol [1, 6] | Mean Steroid Concentration, estriol [1, 6] | Mean Steroid Concentration, estrone [1, 6] | Mean Uterine Weight [1, 6] [mg] | other results |
| --- | --- | --- | --- | --- | --- | --- | --- | --- | --- | --- | --- | --- | --- | --- |
| O=[N+]([O-])c1ccc(C(c2ccc([N+](=O)[O-])cc2)n2ccnc2)cc1 [1-[bis(4-nitrophenyl)methyl]imidazole] | 0.92 femtomoles per milligram of protein | 1.65 femtomoles per milligram of protein | 1.58 femtomoles per milligram of protein | 105.0 | 0.28 femtomoles per milligram of protein | 0.83 femtomoles per milligram of protein | 0.94 femtomoles per milligram of protein | 110.8 |  |  |  |  |  | Mean Tumor Area, Start ([2]; 300 ppm in diet, 4 weeks test): 64.5 mm^2; Mean Tumor Area, Finish ([2]; 300 ppm in diet, 4 weeks, control 62.8 to 1087.3 (Test II), 1087.0 (Test III)): 18.9 mm^2 |
| Clc1ccc(C(c2ccc(Cl)cc2)n2ccnc2)cc1 [1-[bis(4-chlorophenyl)methyl]imidazole] |  |  | 0.09 femtomoles per milligram of protein | 85.3 |  |  |  | 66.0 |  |  |  |  |  | Mean Tumor Area, Start ([2]; 5 mg/kg daily by gavage, 4 weeks test): 44.8 mm^2; Mean Tumor Area, Finish ([2]; 5 mg/kg daily by gavage, 4 weeks, control 54.8 to 914.0): 346.0 mm^2; Mean Tumor Area, Start ([2]; 30 mg/kg daily by gavage, 4 weeks test): 62.4 mm^2; Mean Tumor Area, Finish ([2]; 30 mg/kg daily by gavage, 4 weeks, control 54.8 to 914.0): 276.0 mm^2; Mean Tumor Area, Start ([2]; 300 ppm in diet, 6 weeks test): 57.4 mm^2; Mean Tumor Area, Finish ([2]; 300 ppm in diet, 6 weeks, control 49.6 to 752.1): 40.8 mm^2 |
| c1ccc(C(c2ccccc2)(c2ccncc2)n2ccnc2)cc1 [4-(1H--imidazol-1-yl-diphenylmethyl)pyridine] | 0.78 femtomoles per milligram of protein | 0.35 femtomoles per milligram of protein | 0.25 femtomoles per milligram of protein | 156.0 | 0.61 femtomoles per milligram of protein | 0.29 femtomoles per milligram of protein | 0.23 femtomoles per milligram of protein | 110.8 | 12 |  |  |  |  |  |
| FC(F)(F)c1cccc(C(c2ccc(Cl)cc2)(c2cccnc2)n2cncn2)c1 (stereo not shown) [3-[(4-chlorophenyl)-1H--1,2,4-triazol-1-yl-(3-trifluoromethylphenyl)methyl]pyridine] |  |  |  |  |  |  |  |  | 98 | 0.88 femtomoles per milligram of protein | 0.06 femtomoles per milligram of protein | 0.01 femtomoles per milligram of protein | 159.2 |  |
| Clc1ccc(COc2ccccc2Cn2ccnc2)c(Cl)c1 [1-[(2-[2,4-dichlorobenzyloxy]phenyl)methyl]-1H--imidazole nitrate] | 1.16 femtomoles per milligram of protein | 0.33 femtomoles per milligram of protein | 0.31 femtomoles per milligram of protein | 173.5 | 1.97 femtomoles per milligram of protein | 0.34 femtomoles per milligram of protein | 0.30 femtomoles per milligram of protein | 151.4 | 68 |  |  |  |  |  |
| Cl.Clc1cccc(Cn2ccnc2)c1Cl [1-(2,3-dichlorobenzyl)imidazole hydrochloride] | 2.09 femtomoles per milligram of protein | 0.78 femtomoles per milligram of protein | 0.34 femtomoles per milligram of protein | 139.4 | 1.12 femtomoles per milligram of protein | 0.41 femtomoles per milligram of protein | 0.23 femtomoles per milligram of protein | 127.3 | 87 |  |  |  |  |  |
| O=[N+]([O-])c1ccc(Cn2ccnc2)cc1 [1-[(4-nitrophenyl)methyl]-1H--imidazole hydrochloride] | 1.16 femtomoles per milligram of protein | 0.80 femtomoles per milligram of protein | 0.88 femtomoles per milligram of protein | 185.3 | 0.79 femtomoles per milligram of protein | 1.11 femtomoles per milligram of protein | 1.19 femtomoles per milligram of protein | 147.2 | 29 |  |  |  |  |  |
| Cc1nccn1C(c1ccc(Cl)cc1)(c1ccc(Cl)cc1)c1cccnc1 [3-[bis(4-chlorophenyl)(2-methyl-1H--imidazol-1-yl)methyl]pyridine] |  |  |  |  |  |  |  |  | < 50 | 0.89 femtomoles per milligram of protein | 0.38 femtomoles per milligram of protein | 0.06 femtomoles per milligram of protein | 125.8 |  |
| Clc1ccc(C(c2ccc(Cl)cc2)(c2cccnc2)n2cncn2)cc1 [3-[bis(4-chlorophenyl)-1H--1,2,4-triazol-1-ylmethyl]pyridine] | 1.83 femtomoles per milligram of protein | 0.36 femtomoles per milligram of protein | 0.06 femtomoles per milligram of protein | 150.8 | 1.18 femtomoles per milligram of protein | 0.13 femtomoles per milligram of protein | 0.06 femtomoles per milligram of protein | 85.6 | 60 |  |  |  |  |  |
| FC(F)(F)c1cccc(C(c2ccc(Cl)cc2)(c2cccnc2)n2ccnc2)c1 (stereo not shown) [3-[(4-chlorophenyl)-1H--imidazol-1-yl-(3-trifluoromethylphenyl)methyl]pyridine] |  |  |  |  |  |  |  |  | < 50 | 0.70 femtomoles per milligram of protein | 0.27 femtomoles per milligram of protein | 0.06 femtomoles per milligram of protein | 122.6 |  |
